For 23 compounds, inhibition and Drug metabolism results are on record in ChEMBL document CHEMBL5113455, “Discovery of benzyloxyphenyl- and phenethylphenyl-imidazole derivatives as a new class of ante-drug type boosters” (Bioorg Med Chem Lett, 2022).

Series [1] deals with CYP3A4. Briefly: in vitro. The following applies: rat.
Series [2] can be described thus: Drug metabolism in rat liver microsome assessed as metabolite 4-[(4-imidazol-1-ylphenoxy)methyl]benzoic acid formation at 10 uM and measured upto 30 mins by liquid chromatography-tandem mass spectrometry. It counts as ADME. The following applies: microsomes, 0.5 h. Background: Liver microsomes are vesicles of endoplasmic reticulum, rich in cytochrome P450 enzymes.

Where [3] appears, read: rat liver microsomes, probe midazolam.

Consider `CCOC(=O)c1ccc(CCc2ccc(-n3ccnc3)cc2)cc1`, for which, in series [1] (setting [3]), the inhibition (usually the relative decrease from the control value, in per cent) at 10 min, 10 µM amounted to 74%.

In series [1] (setting [3]), `OCc1ccc(COc2ccc(-n3ccnc3)cc2)cc1` yielded an inhibition at 10 min, 10 µM of 84.7%.

For `O=C(OCC(F)(F)F)c1ccc(COc2ccc(-n3ccnc3)cc2)cc1`, the inhibition at 10 min, 10 µM in series [1] (setting [3]) is 10.4%.

Take `CCCOC(=O)c1ccc(COc2ccc(-n3ccnc3)cc2)cc1`: the inhibition at 10 min, 10 µM in series [1] (setting [3]) came to 42.6%.

With `CC(=O)OCCOc1ccc(-n2ccnc2)cc1`, the inhibition at 10 min, 10 µM in series [1] (setting [3]) is 34.7%.

`O=C(Oc1ccc(-n2ccnc2)cc1)c1ccc(C(F)(F)F)cc1`: the inhibition at 10 min, 10 µM in series [1] (setting [3]) came out at 15.6%.

With `O=C(O)c1ccc(CCc2ccc(-n3ccnc3)cc2)cc1`, in series [1] (setting [3]), the inhibition at 10 min, 10 µM was 15.5%.

`OCCOc1ccc(-n2ccnc2)cc1` registered an inhibition at 10 min, 10 µM in series [1] (setting [3]) of 6.7%.

The compound `CC(=O)N1CCN(c2ccc(OCC3COC(Cn4ccnc4)(c4ccc(Cl)cc4Cl)O3)cc2)CC1` (centres undefined) [KETOCONAZOLE] gave an inhibition at 10 min, 10 µM in series [1] (microsomes) of 94.4%.

In series [1] (setting [3]), `COC(=O)c1ccc(COc2ccc(-n3ccnc3)cc2)cc1` gave an inhibition at 10 min, 10 µM of 72%. Besides, the Drug metabolism entry in series [2] was “Metabolite_Detected”.

`CCCCOC(=O)c1ccc(COc2ccc(-n3ccnc3)cc2)cc1` displayed an inhibition at 10 min, 10 µM in series [1] (setting [3]) of 39.9%.

The compound `O=C(OCCc1ccccc1)c1ccc(COc2ccc(-n3ccnc3)cc2)cc1` returned an inhibition at 10 min, 10 µM in series [1] (setting [3]) of 61.8%.

As to `CCC(C)COC(=O)c1ccc(COc2ccc(-n3ccnc3)cc2)cc1` (centres undefined), the inhibition at 10 min, 10 µM in series [1] (setting [3]) came to 58.4%.

On to `O=C(O)c1ccc(COc2ccc(-n3ccnc3)cc2)cc1`, for which, in series [1] (setting [3]), the inhibition at 10 min, 10 µM is 15.5%.

In turn, `CCCOC(=O)c1ccc(CCc2ccc(-n3ccnc3)cc2)cc1` returned an inhibition at 10 min, 10 µM in series [1] (setting [3]) of 90.4%.

In turn, `COC(=O)c1ccc(CCc2ccc(-n3ccnc3)cc2)cc1` displayed an inhibition at 10 min, 10 µM in series [1] (setting [3]) of 82.8%.

Regarding `CCCCCCOC(=O)c1ccc(COc2ccc(-n3ccnc3)cc2)cc1`, the inhibition at 10 min, 10 µM in series [1] (setting [3]) was determined as 72.2%.

Compound `Nn1nnc2ccccc21` came in with an inhibition at 10 min, 10 µM in series [1] (setting [3]) of 80.8%.

For `CC(=O)OCc1ccc(COc2ccc(-n3ccnc3)cc2)cc1`, the inhibition at 10 min, 10 µM in series [1] (setting [3]) came to 87.1%.

Turning to `c1ccc(COc2ccc(-n3ccnc3)cc2)cc1`, in series [1] (setting [3]), the inhibition at 10 min, 10 µM worked out at 82.5%.

In turn, `O=C(Oc1ccc(-n2ccnc2)cc1)c1ccc(Cl)cc1` registered an inhibition at 10 min, 10 µM in series [1] (setting [3]) of 16.5%.

With `N#Cc1ccc(COc2ccc(-n3ccnc3)cc2)cc1`, the inhibition at 10 min, 10 µM in series [1] (setting [3]) is 88.1%.

With `CCOC(=O)COc1ccc(-n2ccnc2)cc1`, the inhibition at 10 min, 10 µM in series [1] (setting [3]) stood at 12.7%.
